Pest or weed control data for 12 molecules are collected here from patent publication US20230278972A1, “SUBSTITUTED HALOALKYL SULFONANILIDE HERBICIDES” (FMC Corporation, priority 2020, published 2023).

The structures appear in SMILES notation. Where two headings read alike, the source gives them in different places.

What all share (type): in vivo
Experiment [1] concerns pigweed (Amaranthus retroflexus). The experiment in a line: Test A postemergence, pigweed. The settings on record: Amaranthus retroflexus, post-emergence, 240 h, Postemergence, 0 to 100 scale (0 no effect, 100 complete control); for pest or weed control at 125 g/ha: 125 g ai/ha; for pest or weed control at 500 g/ha: 500 g ai/ha. In outline: (§1)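 Compounds in non-phytotoxic solvent with surfactant. Soil: loam/sand. Preemergence via directed soil spray after seeding; postemergence on seedlings 2–10 cm, one- to two-leaf.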

The subject of experiment [2] is barnyardgrass (Echinochloa crus-galli). Nature of the experiment: Test A preemergence, barnyardgrass. The settings on record: Echinochloa crus-galli, pre-emergence, 240 h, Preemergence; for pest or weed control at 125 g/ha: 125 g ai/ha; for pest or weed control at 500 g/ha: 500 g ai/ha. The essentials: as §1
Experiment [3] relates to Foxtail, Giant (giant foxtail, Setaria faberi). The experiment in a line: Test A preemergence, Foxtail, Giant. The settings on record: Setaria faberi, pre-emergence, 240 h, Preemergence; for pest or weed control at 125 g/ha: 125 g ai/ha; for pest or weed control at 500 g/ha: 500 g ai/ha. In outline:
as §1

Experiment [4] concerns kochia (Bassia scoparia). Nature of the experiment: Test A preemergence, kochia. The settings on record: Bassia scoparia, pre-emergence, 240 h, Preemergence; for pest or weed control at 125 g/ha: 125 g ai/ha; for pest or weed control at 500 g/ha: 500 g ai/ha. The essentials:
as §1

The mark [5] stands for this setting: visual injury approx. 10 days, read-out: Plant response rating, Pigweed.
The mark [6] stands for this setting: visual injury, approx. 10 days, read-out: Plant response rating, Pigweed.
[7] abbreviates: visual injury on 0 to 100 scale (0 no effect, 100 complete control), approximately 10 days, read-out: Barnyardgrass plant response rating.
Setting [8] is: 0 to 100 scale (0 no effect, 100 complete control), read-out: Plant response rating, Barnyardgrass.
Where [9] appears, read: visual injury on 0 to 100 scale (0 no effect, 100 complete control), approximately 10 days, read-out: Foxtail, Giant plant response rating.
Where [10] appears, read: 0 to 100 scale (0 no effect, 100 complete control), read-out: Plant response rating, Foxtail, Giant.
The mark [11] stands for this setting: visual injury on 0 to 100 scale (0 no effect, 100 complete control), approximately 10 days, read-out: Kochia plant response rating.
[12] abbreviates: 0 to 100 scale (0 no effect, 100 complete control), read-out: Plant response rating, Kochia.
Where [13] appears, read: visual injury vs untreated controls after approx. 10 days, read-out: Pigweed plant response rating.
[14] abbreviates: read-out: Plant response rating, Pigweed.
The mark [15] stands for this setting: visual injury, 0 to 100 scale (0 no effect, 100 complete control), approx. 10 days, read-out: Plant response rating, Barnyardgrass.
Where [16] appears, read: visual injury, 0 to 100 scale (0 no effect, 100 complete control), approx. 10 days, read-out: Plant response rating, Foxtail, Giant.
Where [17] appears, read: visual injury, 0 to 100 scale (0 no effect, 100 complete control), approx. 10 days, read-out: Plant response rating, Kochia.

As to `Cc1cc(Cl)c(NS(=O)(=O)C(F)(F)F)cc1C(=O)N1CCOCC1` [Compound 16, N-[2-Chloro-4-methyl-5-(4-morpholinylcarbonyl)phenyl]-1,1,1-trifluoromethanesulfonamide], the pest or weed control at 125 g/ha was 70% in experiment [1] (setting [5]), 90% in experiment [2] (setting [7]), 30% in experiment [3] (setting [9]) and 90% in experiment [4] (setting [11]). In addition, the pest or weed control at 500 g/ha worked out at 90% in experiment [1] (setting [6]), 100% in experiment [2] (setting [8]), 100% in experiment [3] (setting [10]) and 90% in experiment [4] (setting [12]).

Take `Cc1cc(Cl)c(NS(=O)(=O)C(F)(F)F)cc1C(=O)N1CCCCC1` [Compound 18, N-[2-Chloro-4-methyl-5-(1-piperidinylcarbonyl)phenyl]-1,1,1-trifluoromethanesulfonamide]: the pest or weed control at 125 g/ha came to 40% in experiment [1] (setting [5]), 100% in experiment [2] (setting [7]), 100% in experiment [3] (setting [9]) and 10% in experiment [4] (setting [11]). Besides, the pest or weed control at 500 g/ha in experiment [1] (setting [6]) was 90%; in experiment [2] (setting [8]), 100%; in experiment [3] (setting [10]) it was 100%; in experiment [4] (setting [12]) it was 60%.

Turning to `CCc1cc(-c2cc(NS(=O)(=O)C(F)(F)F)c(C)cc2C)c(=O)n(C)n1` [Compound 34, N-[5-(6-Ethyl-2,3-dihydro-2-methyl-3-oxo-4-pyridazinyl)-2,4-dimethylphenyl]-1,1,1-trifluoromethanesulfonamide], the pest or weed control at 125 g/ha in experiment [1] (setting [5]) is 0%; in experiment [2] (setting [7]), 0%; in experiment [3] (setting [9]) it was 0%; in experiment [4] (setting [11]), 30%. The pest or weed control at 500 g/ha in experiment [1] (setting [6]) is 0%; in experiment [2] (setting [8]), 0%; in experiment [3] (setting [10]) it was 30%; in experiment [4] (setting [12]), 70%.

Turning to `Cc1cc(C)c(N(COC(=O)C(C)(C)C)S(=O)(=O)C(F)(F)F)cc1C1=NO[C@@H]2CCC[C@H]12` [Compound 100, [[2,4-Dimethyl-5-[(3aR,6aR)-3a,5,6,6a-tetrahydro-4H-cyclopent[d]isoxazol-3-yl]phenyl][(trifluoromethyl)sulfonyl]amino]methyl 2,2-dimethylpropanoate], the pest or weed control at 125 g/ha in experiment [1] (setting [5]) came out at 60%; in experiment [2] (setting [7]), 70%; in experiment [3] (setting [9]) it was 40%; in experiment [4] (setting [11]), 60%. Further, the pest or weed control at 500 g/ha worked out at 90% in experiment [1] (setting [13]), 90% in experiment [2] (setting [8]), 90% in experiment [3] (setting [10]) and 80% in experiment [4] (setting [12]).

For the molecule `Cc1cc(C)c(C2=NO[C@@H]3CCC[C@H]23)cc1NS(=O)(=O)C(F)(F)F` [Compound 103, N-[2,4-Dimethyl-5-[(3aR,6aR)-3a,5,6,6a-tetrahydro-4H-cyclopent[d]isoxazol-3-yl]phenyl]-1,1,1-trifluoromethanesulfonamide], the pest or weed control at 125 g/ha stood at 80% in experiment [1] (setting [5]), 90% in experiment [2] (setting [7]), 90% in experiment [3] (setting [9]) and 80% in experiment [4] (setting [11]). Also, the pest or weed control at 500 g/ha in experiment [1] (setting [13]) is 80%; in experiment [2] (setting [8]), 90%; in experiment [3] (setting [10]), 100%; in experiment [4] (setting [12]), 90%.

As to `Cc1cc(C)c(C2=NOC3CCOCC23)cc1NS(=O)(=O)C(F)(F)F` (stereo not drawn) [Compound 120, N-[2,4-Dimethyl-5-(3a,6,7,7a-tetrahydro-4H-pyrano[3,4-d]isoxazol-3-yl)phenyl]-1,1,1-trifluoromethanesulfonamide], the pest or weed control at 125 g/ha in experiment [1] (setting [5]) came out at 60%; in experiment [2] (setting [7]) it was 90%; in experiment [3] (setting [9]) it was 100%; in experiment [4] (setting [11]), 90%. The pest or weed control at 500 g/ha in experiment [1] (setting [13]) is 90%; in experiment [2] (setting [8]), 100%; in experiment [3] (setting [10]) it was 100%; in experiment [4] (setting [12]), 100%.

Regarding `Cc1cc(C)c(C2=NOC3COCCC23)cc1NS(=O)(=O)C(F)(F)F` (stereo not drawn) [Compound 121, N-[2,4-Dimethyl-5-(3a,4,7,7a-tetrahydro-5H-pyrano[4,3-d]isoxazol-3-yl)phenyl]-1,1,1-trifluoromethanesulfonamide], the pest or weed control at 125 g/ha in experiment [1] (setting [5]) turned out to be 70%; in experiment [2] (setting [7]), 90%; in experiment [3] (setting [9]), 100%; in experiment [4] (setting [11]), 90%. For the same molecule, the pest or weed control at 500 g/ha in experiment [1] (setting [13]) is 90%; in experiment [2] (setting [8]) it was 90%; in experiment [3] (setting [10]), 100%; in experiment [4] (setting [12]) it was 90%.

For `Cc1c(NS(=O)(=O)C(F)(F)F)cc(C(=O)N(C)C)c(C)c1F` [Compound 128, 3-Fluoro-N,N,2,4-tetramethyl-5-[[(trifluoromethyl)sulfonyl]amino]benzamide], the pest or weed control at 125 g/ha in experiment [1] (setting [5]) came out at 60%; in experiment [2] (setting [7]) it was 100%; in experiment [3] (setting [9]) it was 50%; in experiment [4] (setting [11]), 80%. Also, the pest or weed control at 500 g/ha in experiment [1] (setting [13]) amounted to 90%; in experiment [2] (setting [8]), 100%; in experiment [3] (setting [10]), 100%; in experiment [4] (setting [12]) it was 80%.

With `Cc1cc(C)c(N(COC(=O)C(C)(C)C)S(=O)(=O)C(F)(F)F)cc1C1=NOC2(CCCC2)C1` [Compound 140, [[2,4-Dimethyl-5-(1-oxa-2-azaspiro[4.4]non-2-en-3-yl)phenyl][(trifluoromethyl)sulfonyl]amino]methyl 2,2-dimethylpropanoate], the pest or weed control at 125 g/ha in experiment [1] (setting [14]) came to 10%; in experiment [2] (setting [7]), 40%; in experiment [3] (setting [9]), 20%; in experiment [4] (setting [11]) it was 0%. Further, the pest or weed control at 500 g/ha in experiment [1] (setting [13]) turned out to be 80%; in experiment [2] (setting [8]), 100%; in experiment [3] (setting [10]), 90%; in experiment [4] (setting [12]), 70%.

For the molecule `Cc1cc(C)c(N(COC(=O)C(C)(C)C)S(=O)(=O)C(F)(F)F)cc1C1=NOC2(CCCCC2)C1` [Compound 159, [[2,4-Dimethyl-5-(1-oxa-2-azaspiro[4.5]dec-2-en-3-yl)phenyl][(trifluoromethyl)sulfonyl]amino]methyl 2,2-dimethylpropanoate], the pest or weed control at 125 g/ha in experiment [1] (setting [14]) was 40%; in experiment [2] (setting [7]), 40%; in experiment [3] (setting [9]), 30%; in experiment [4] (setting [11]), 40%. The pest or weed control at 500 g/ha was found to be 70% in experiment [1] (setting [13]), 60% in experiment [2] (setting [8]), 70% in experiment [3] (setting [10]) and 70% in experiment [4] (setting [12]).

For `Cc1c(NS(=O)(=O)C(F)(F)F)cc(C(=O)N2CCOCC2)c(C)c1F` [Compound 190, 1,1,1-Trifluoro-N-[3-fluoro-2,4-dimethyl-5-(4-morpholinylcarbonyl)phenyl]methanesulfonamide], the pest or weed control at 125 g/ha was determined as 70% in experiment [1] (setting [14]), 90% in experiment [2] (setting [15]), 90% in experiment [3] (setting [16]) and 90% in experiment [4] (setting [17]). Moreover, the pest or weed control at 500 g/ha in experiment [1] (setting [13]), in experiment [2] (setting [8]), in experiment [3] (setting [10]) and in experiment [4] (setting [12]) was 100% throughout.

As to `Cc1cc(C)c(C2=NOC3(CCCCC3)C2)cc1NS(=O)(=O)C(F)(F)F` [Compound 197, N-[2,4-Dimethyl-5-(1-oxa-2-azaspiro[4.5]dec-2-en-3-yl)phenyl]-1,1,1-trifluoromethanesulfonamide], the pest or weed control at 125 g/ha in experiment [1] (setting [14]) was determined as 60%; in experiment [2] (setting [15]), 90%; in experiment [3] (setting [16]), 100%; in experiment [4] (setting [17]), 90%. For the same molecule, the pest or weed control at 500 g/ha in experiment [1] (setting [13]) came out at 90%; in experiment [2] (setting [8]) it was 100%; in experiment [3] (setting [10]), 100%; in experiment [4] (setting [12]), 90%.
